Test results as given in publication PMC9820738, “Spectrofluorimetric and Computational Investigation of New Phthalimide Derivatives towards Human Neutrophil Elastase Inhibition and Antiproliferative Activity” (International Journal of Molecular Sciences, 2022).
Like-named read-outs stand apart in the source and are kept apart here.

Key:
[1] = tested on: MDA-MB-231 human breast adenocarcinoma cells; assay: In vitro antiproliferative assay, MDA-MB-231; type: cell-based; settings: for IC50: MDA-MB-231, read-out: IC50 ± SD, antiproliferative activity; for SI BALB/3T3/ MDA-MB-231: IC50 in normal cell line / IC50 in cancer cell line
Procedure: (§1) Cell preparation, in vitro antiproliferative assay, MTT and SRB cytotoxic tests were performed according to literature.

[2] = tested on: BALB/3T3 normal mouse fibroblast cells; assay: In vitro cytotoxicity on normal fibroblasts, BALB/3T3; type: cell-based; settings: BALB/3T3 normal mouse fibroblasts; read-out: IC50 ± SD, antiproliferative activity
Procedure: as §1

[3] = tested on: MV4-11 human biphenotypic B myelomonocytic leukemia cells; assay: In vitro antiproliferative assay, MV4-11; type: cell-based; settings: for IC50: MV4-11, read-out: IC50 ± SD, antiproliferative activity; for SI BALB/3T3/ MV4-11: IC50 in normal cell line / IC50 in cancer cell line
Procedure: as §1

[4] = tested on: UMUC-3 human bladder transitional cell carcinoma cells; assay: In vitro antiproliferative assay, UMUC-3; type: cell-based; settings: for IC50: UMUC-3, read-out: IC50 ± SD, antiproliferative activity; for SI BALB/3T3/ UMUC-3: IC50 in normal cell line / IC50 in cancer cell line
Procedure: as §1

[5] = tested on: A549 lung carcinoma cells; assay: In vitro antiproliferative assay, A549; type: cell-based, human; settings: for IC50: A549, read-out: IC50 ± SD, antiproliferative activity; for SI BALB/3T3/ A549: IC50 in normal cell line / IC50 in cancer cell line
Procedure: as §1

[6] = target: T1, human neutrophil elastase (HNE) (Homo sapiens, UniProt P08246); assay: Fluorometric human neutrophil elastase (HNE) inhibition assay, MOSuc-AAPV-AMC substrate; type: biochemical; settings: HNE 20 mU/mL, 25 µM substrate, 0.1 M HEPES pH 7.5, 25 °C, triplicate; read-out: IC50 ± SD, elastase inhibitory activity
T1 sequence (P08246 30-267): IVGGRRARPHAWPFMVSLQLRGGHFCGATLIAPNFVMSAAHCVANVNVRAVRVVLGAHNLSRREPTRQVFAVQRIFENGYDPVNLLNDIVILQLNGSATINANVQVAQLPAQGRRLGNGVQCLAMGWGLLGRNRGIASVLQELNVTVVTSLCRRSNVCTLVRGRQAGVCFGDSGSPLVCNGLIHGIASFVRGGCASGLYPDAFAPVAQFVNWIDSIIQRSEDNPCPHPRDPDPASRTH
Procedure: Fluorometric assay for human neutrophil elastase (HNE) inhibition was performed according to the previously presented method with some modifications, using N-methoxysuccinyl-Ala-Ala-Pro-Val-7-amido-4-methyl-coumarin (MOSuc-AAPV-AMC, Calbiochem) as substrate. […] The reaction was carried out in assay buffer containing 0.1 M HEPES (pH 7.5). Briefly, different concentration of tested compounds was incubated with 20 mU/mL of HNE (Bradford) in 25 °C. The reaction was started by addition of 25 µM elastase substrate to final reaction volume 100 µL and monitored for 30 min at 25 °C on a microplate reader (FP-8500 Spectrofluorometer, JASCO, USA) with excitation and emission wavelengths of 380 nm and 440 nm, respectively. By computing the log of inhibitors concentrations versus the percentage of activity, the IC50 values were determined by non-linear regression analysis. Assays were performed in triplicate and data presented as the mean and the standard deviation. Ursolic acid was used as the reference compound.

[7] = target: T1, human neutrophil elastase (HNE); assay: Kinetic analysis of the inhibition of elastase (Lineweaver–Burk, secondary plots); type: biochemical
Procedure: Kinetic studies were conducted in the presence of different concentrations of substrate (5, 25, 50 and 100 µM) and test compound (in the range of 0–10 µM). The reaction conditions were the same as in the HNE inhibition assay and the reaction was monitored for 10 min at 25 °C with the same Ex an Em wavelengths. By Lineweaver–Burk plots, kinetic values such as Michaelis–Menten constants and maximum velocity were determined. Next, two inhibition constants for inhibitor binding with free enzyme or enzyme–substrate complex (Ki and Kis) were obtained by plotting the secondary plot of the slopes of the determined straight lines or vertical intercept versus inhibitor concentration.

[8] = Spontaneous hydrolysis (chemical stability) in phosphate buffer, spectrophotometric; type: physicochemical; settings: 0.05 M phosphate buffer pH 7.3, 25 °C, λ 305 nm
Procedure: Spontaneous compound hydrolysis studies were performed following the literature procedure. The kinetics hydrolysis of the compounds was evaluated at 25 °C in 0.05 M phosphate buffer, pH 7.3, by measuring changes in absorbance spectra during incubation using a T60U spectrophotometer (PG Instruments). The absorbance (At) at characteristic absorption maxima for each compound was measured at 10 min intervals until there was no further decrease in absorbance (Aꝏ). Using these measurements, semilogarithmic plots of the dependence of log(At–Aꝏ) on time were prepared, and k’ values were determined from the slope of these plots according to the first order reaction kinetics. Half-conversion times were calculated using equation: t1/2 = 0.693/k’.

| Compound | IC50 ([1]; Homo sapiens) [µM] | IC50 ([3]; Homo sapiens) [µM] | IC50 ([4]; Homo sapiens, UMUC3) [µM] | IC50 ([5]; Homo sapiens) [µM] | IC50 [6] [µM] | melting point [°C] | Inhibition Type ([7]; Lineweaver–Burk and Dixon analysis) | Ki ([7]; inhibitor binding with free enzyme, secondary plot) [µM] | k, rate constant of spontaneous hydrolysis [8] [min⁻¹] | half-life ([8]; read-out: t1/2, half-life for the spontaneous hydrolysis) [min] | IC50 [2] [µM] | SI BALB/3T3/ MDA-MB-231 [1] | SI BALB/3T3/ MV4-11 [3] | SI BALB/3T3/ UMUC-3 [4] | SI BALB/3T3/ A549 [5] | IC50 [1] [µM] | IC50 [3] [µM] | IC50 [4] [µM] | IC50 [5] [µM] |
| --- | --- | --- | --- | --- | --- | --- | --- | --- | --- | --- | --- | --- | --- | --- | --- | --- | --- | --- | --- |
| O=C1c2ccccc2C(=O)N1CCc1csc(Nc2ccc(C(F)(F)F)cc2)n1 [Compound 4c, 2-(2-(2-(4-(Trifluoromethyl)phenylamino)thiazol-4-yl)ethyl)isoindoline-1,3-dione] | 77.5 ± 13.7 | 46.6 ± 25.4 | 75.2 ± 6.71 | 14 ± 1.56 | 13 | 170 to 172 | mixed type I inhibition | 4.54 | 0.018 | 38.5 | 84.9 ± 18.2 | 1.10 | 1.82 | 1.13 | 6.07 | – | – | – | – |
| COc1cc(Nc2nc(CCN3C(=O)c4ccccc4C3=O)cs2)cc(OC)c1OC [Compound 4d, 2-(2-(2-(3,4,5-Trimethoxyphenylamino)thiazol-4-yl)ethyl)isoindoline-1,3-dione] | 48.9 ± 13.2 | 8.21 ± 2.37 | 46.1 ± 7.28 | 23.7 ± 5.23 | 22.9 ± 1.59 | – | – | – | – | – | 46.8 ± 2.05 | – | – | – | – | – | – | – | – |
| O=C1c2ccccc2C(=O)N1CCc1csc(Nc2cccc3ccccc23)n1 [Compound 4e, 2-(2-(2-(Naphthalen-1-ylamino)thiazol-4-yl)ethyl)isoindoline-1,3-dione] | 76.4 ± 11.1 | 33.2 ± 12 | 80 ± 16.2 | 41.1 ± 3.13 | 15.6 ± 0.16 | 161 to 162 | – | – | – | – | 103 ± 30.7 | 1.34 | 3.09 | 1.28 | 2.50 | – | – | – | – |
| Cc1cc(C)cc(Nc2nc(CCN3C(=O)c4ccccc4C3=O)cs2)c1 [Compound 4f, 2-(2-(2-(3,5-Dimethylphenylamino)thiazol-4-yl)ethyl)isoindoline-1,3-dione] | 86.4 ± 12.2 | 13.2 ± 4.77 | 66.5 ± 9.8 | 25.6 ± 3.63 | 49.9 ± 0.98 | – | – | – | – | – | 101 ± 12.2 | – | – | – | – | – | – | – | – |
| O=C1c2ccccc2C(=O)N1CCc1csc(Nc2c(Cl)cc(Cl)cc2Cl)n1 [Compound 4h, 2-(2-(2-(2,4,6-Trichlorophenylamino)thiazol-4-yl)ethyl)isoindoline-1,3-dione] | – | 48.5 ± 21.4 | 120 ± 36 | 57.1 ± 19.4 | 16.6 ± 2.06 | 168 to 169 | – | – | – | – | – | – | – | – | – | – | – | – | – |
| C[C@H]1[C@H](C)CC[C@]2(C(=O)O)CC[C@]3(C)C(=CC[C@@H]4[C@@]5(C)CC[C@H](O)C(C)(C)[C@@H]5CC[C@]43C)[C@H]12 [Ursolic acid, reference compound] | – | – | – | – | 5.32 ± 0.68 | – | – | – | – | – | – | – | – | – | – | – | – | – | – |
| N.N.[Cl][Pt][Cl] [cisplatin, reference compound] | – | – | – | – | – | – | – | – | – | – | 8.47 ± 1.96 | – | – | – | – | 15.6 ± 2 | 1.43 ± 0.4 | 1.73 ± 0.17 | 5.41 ± 0.6 |

Further lines, with some results ahead:

| IC50 ([1]; Homo sapiens) [µM] | IC50 ([3]; Homo sapiens) [µM] | IC50 ([4]; Homo sapiens, UMUC3) [µM] | IC50 ([5]; Homo sapiens) [µM] | IC50 [6] [µM] | melting point [°C] | Inhibition Type ([7]; Lineweaver–Burk and Dixon analysis) | Ki ([7]; inhibitor binding with free enzyme, secondary plot) [µM] | k, rate constant of spontaneous hydrolysis [8] [min⁻¹] | half-life ([8]; read-out: t1/2, half-life for the spontaneous hydrolysis) [min] | Compound | IC50 [2] [µM] | SI BALB/3T3/ MDA-MB-231 [1] | SI BALB/3T3/ MV4-11 [3] | SI BALB/3T3/ UMUC-3 [4] | SI BALB/3T3/ A549 [5] | IC50 [1] [µM] | IC50 [3] [µM] | IC50 [4] [µM] | IC50 [5] [µM] |
| --- | --- | --- | --- | --- | --- | --- | --- | --- | --- | --- | --- | --- | --- | --- | --- | --- | --- | --- | --- |
| 110 ± 24.5 | 59.6 ± 4.63 | 82.3 ± 2.18 | 50.7 ± 3.32 | 29.4 ± 3.13 | – | – | – | – | – | O=C1c2ccccc2C(=O)N1CCc1csc(Nc2ccc(F)cc2)n1 [Compound 4a, 2-(2-(2-(4-Fluorophenylamino)thiazol-4-yl)ethyl)isoindoline-1,3-dione] | 74.2 ± 12.2 | – | – | – | – | – | – | – | – |
| 86.5 ± 10.7 | 12.2 ± 4.56 | 61.7 ± 1.56 | 18.1 ± 0.94 | 46.5 ± 4.85 | – | – | – | – | – | O=C1c2ccccc2C(=O)N1CCc1csc(Nc2ccc(Cl)cc2)n1 [Compound 4b, 2-(2-(2-(4-Chlorophenylamino)thiazol-4-yl)ethyl)isoindoline-1,3-dione] | 66.2 ± 4.17 | – | – | – | – | – | – | – | – |
| 9.66 ± 1.4 | 83.3 ± 26.6 | 19.8 ± 1.4 | – | 64.9 ± 7.75 | > 260 | – | – | – | – | NS(=O)(=O)c1ccc(Nc2nc(CCN3C(=O)c4ccccc4C3=O)cs2)cc1 [Compound 4g, 4-(4-(2-(1,3-Dioxoisoindolin-2-yl)ethyl)thiazol-2-ylamino)benzenesulfonamide] | 14.3 ± 2.1 | 1.49 | 0.17 | 0.72 | – | – | – | – | – |
| 87.7 ± 22 | 44.5 ± 20.2 | 74.1 ± 12 | 62.9 ± 5.75 | 25.6 ± 1.78 | – | – | – | – | – | CC(=O)c1ccc(Nc2nc(CCN3C(=O)c4ccccc4C3=O)cs2)cc1 [Compound 4i, 2-(2-(2-(4-Acetylphenylamino)thiazol-4-yl)ethyl)isoindoline-1,3-dione] | 99 ± 21.2 | – | – | – | – | – | – | – | – |
